44 compounds from patent publication US11279687B2, “Compounds and compositions for the inhibition of NAMPT” (Valo Health, Inc., priority 2010, dated 2022) can be followed below.

Where two headings read alike, the source gives them in different places.

One assay deals with NAMPT (Homo sapiens (Human), UniProt P43490). In words: NAMPT biochemical inhibition assay (NMN quantified by mass spectrometry). Particulars: NAMPT biochemical inhibition; read-out: Biochem IC50.
For a further assay, the system named is A2780 cells. The assay can be described thus: In-vitro cell proliferation assay (SRB), A2780 cells.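 Note: viable cell number read as SRB absorbance, background from media-only wells subtracted, IC50 interpolated from percent inhibition at two bracketing compound concentrations.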 It counts as cell-based. The conditions noted are these: read-out: A2780 IC50.
Where [1] appears, read: Homo sapiens, A2780, 72 h, A2780 cells, 72 hours, SRB.

As usually defined, the IC50 is the point on the concentration scale where inhibition reaches its midpoint.

Chain of NAMPT (P43490 whole entry): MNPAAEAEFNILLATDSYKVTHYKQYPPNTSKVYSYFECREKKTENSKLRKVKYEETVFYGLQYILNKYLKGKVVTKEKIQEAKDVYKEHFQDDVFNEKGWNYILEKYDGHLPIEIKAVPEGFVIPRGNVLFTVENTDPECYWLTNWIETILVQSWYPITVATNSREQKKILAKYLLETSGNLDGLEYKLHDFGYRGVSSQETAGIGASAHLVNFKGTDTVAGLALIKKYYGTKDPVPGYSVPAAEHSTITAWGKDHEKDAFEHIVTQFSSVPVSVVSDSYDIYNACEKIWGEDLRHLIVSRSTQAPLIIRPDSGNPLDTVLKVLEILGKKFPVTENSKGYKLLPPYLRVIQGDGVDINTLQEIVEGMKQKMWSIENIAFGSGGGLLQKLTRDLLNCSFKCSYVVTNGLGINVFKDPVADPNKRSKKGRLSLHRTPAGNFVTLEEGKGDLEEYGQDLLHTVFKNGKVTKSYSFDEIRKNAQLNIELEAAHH

In the case of `CN(C)c1ccc(CNS(=O)(=O)c2ccc(NC(=O)NCc3cccnc3)cc2)cc1` [3-[4-({[4-(dimethylamino)phenyl]methyl}sulfamoyl)phenyl]-1-(pyridin-3-ylmethyl)urea], the figures for the concentration for half-maximal inhibition (IC50) at NAMPT and with A2780 cells (setting [1]) were 3 nM and 148 nM, respectively.
The matching figures for `CC(C)NC(=O)CN1CCN(S(=O)(=O)c2ccc(NC(=O)NCc3cccnc3)cc2)CC1` [N-(propan-2-yl)-2-{4-[(4-{[(pyridin-3-ylmethyl)carbamoyl]amino}benzene)sulfonyl]piperazin-1-yl}acetamide]: 3 nM and 37 nM.
For the compound `O=C(NCc1cccnc1)Nc1ccc(S(=O)(=O)c2cc(F)cc(C(F)(F)F)c2)cc1` [3-(4-{[3-fluoro-5-(trifluoromethyl)benzene]sulfonyl[phenyl)-1-(pyridin-3-ylmethyl)urea], the IC50 at NAMPT worked out at 0.7 nM; in the assay with A2780 cells (A2780 cells, 72 hours, SRB), 57.6 nM.
For the compound `O=C(NCc1cccc(F)c1)Nc1ccc(S(=O)(=O)N2CCCCC2)cc1` [3-[(3-fluorophenyl)methyl]-1-[4-(piperidine-1-sulfonyl)phenyl]urea], in the assay on A2780 cells (setting [1]), the IC50 was more than 30000 nM.
The same measure, in the same setting: next, `O=C(Nc1ccc(S(=O)(=O)c2ccccc2)cc1)Nc1cccnc1` [3-[4-(benzenesulfonyl)phenyl]-1-(pyridin-3-yl)urea]: 27500 nM.
On to `O=C(NCc1cccnc1)Nc1ccc(S(=O)(=O)Nc2cccc(Br)c2)cc1` [3-{4-[(3-bromophenyl)sulfamoyl]phenyl}-1-(pyridin-3-ylmethyl)urea], for which the IC50 on NAMPT amounted to 3 nM.
On the same count and under the same terms, the value for `O=C(NCc1cccnc1)Nc1ccc(S(=O)(=O)N2CCN(c3ccccc3)CC2)cc1` [1-[4-(4-phenylpiperazine-1-sulfonyl)phenyl]-3-(pyridin-3-ylmethyl)urea] was 5 nM; that for `O=C(NCc1cccnc1)Nc1ccc(S(=O)(=O)Nc2cccc(C(F)(F)F)c2)cc1` [1-(pyridin-3-ylmethyl)-3-(4-{[3-(trifluoromethyl)phenyl]sulfamoyl}phenyl)urea] was 6 nM.
For `O=C(NCCc1cccnc1)Nc1ccc(S(=O)(=O)N2CCCCC2)cc1` [3-[4-(piperidine-1-sulfonyl)phenyl]-1-[2-(pyridin-3-yl)ethyl]urea], in the assay with A2780 cells (setting [1]), the 50% inhibitory concentration (IC50) stood at 661 nM.
On the same count and under the same terms, the value for `CN(C)c1ccc(CNC(=O)Nc2ccc(S(=O)(=O)c3ccccc3)cc2)cn1` [3-[4-(benzenesulfonyl)phenyl]-1-{[6-(dimethylamino)pyridin-3-yl]methyl}urea] was 27600 nM; that for `O=C(NCc1ccc(S(=O)(=O)N2CCCCC2)cc1)Nc1cccnc1` [3-{[4-(piperidine-1-sulfonyl)phenyl]methyl}-1-(pyridin-3-yl)urea] was 2260 nM.
On the same count and under the same terms, the value for `C[C@H]1CCCN(S(=O)(=O)c2ccc(NC(=O)NCc3cccnc3)cc2)C1` [3-{4-[(3S)-3-methylpiperidine-1-sulfonyl]phenyl}-1-(pyridin-3-ylmethyl)urea] was 105 nM.
Same read-out and setting: next, `O=C(NCc1ccccc1)Nc1ccc(S(=O)(=O)N2CCCCC2)cc1` [3-benzyl-1-[4-(piperidine-1-sulfonyl)phenyl]urea]: more than 30000 nM; `O=C(NCc1cccnc1)Nc1ccc(S(=O)(=O)N2CCCCCC2)cc1` [3-[4-(azepane-1-sulfonyl)phenyl]-1-(pyridin-3-ylmethyl)urea]: 139 nM; `Nc1cccc(CNC(=O)Nc2ccc(S(=O)(=O)c3ccccc3)cc2)c1` [1-[(3-aminophenyl)methyl]-3-[4-(benzenesulfonyl)phenyl]urea]: 2540 nM.
Take `O=C(NCc1cncc(F)c1)Nc1ccc(S(=O)(=O)N2CCCCC2)cc1` [3-[(5-fluoropyridin-3-yl)methyl]-1-[4-(piperidine-1-sulfonyl)phenyl]urea]: in the assay on A2780 cells (setting [1]), the IC50 was 752 nM.
For the compound `Nc1ccc(CNC(=O)Nc2ccc(S(=O)(=O)c3ccccc3)cc2)cn1` [1-[(6-aminopyridin-3-yl)methyl]-3-[4-(benzenesulfonyl)phenyl]urea], in the assay on A2780 cells (Homo sapiens, A2780, 72 h), the IC50 was found to be 81 nM.
For the compound `O=C(NCc1cccnc1)Nc1ccc(C(=O)c2ccccc2)cc1` [1-(4-benzoylphenyl)-3-(pyridin-3-ylmethyl)urea], in the assay on A2780 cells (setting [1]), the IC50 was 735 nM.
With `O=C(NCc1cccnc1)Nc1ccc(S(=O)(=O)N2C3CCC2COC3)cc1` [1-(4-{3-oxa-8-azabicyclo[3.2.1]octane-8-sulfonyl}phenyl)-3-(pyridin-3-ylmethyl)urea], the half-inhibitory concentration (IC50) in the assay on A2780 cells (setting [1]) was 287 nM.
On to `O=C(NCc1cccnc1)Nc1ccc(S(=O)(=O)c2ccccn2)cc1` [3-(pyridin-3-ylmethyl)-1-[4-(pyridine-2-sulfonyl)phenyl]urea], for which, in the assay with A2780 cells (setting [1]), the IC50 amounted to 869 nM.
Still for that read-out and setting: the value for `Cn1cc(S(=O)(=O)c2ccc(NC(=O)NCc3cccnc3)cc2)cn1` [3-[4-(1-methyl-1H-pyrazole-4-sulfonyl)phenyl]-1-(pyridin-3-ylmethyl)urea] was 247 nM.
On the same count and under the same terms, the value for `O=C(NCc1cccnc1)Nc1ccc(S(=O)(=O)N2CCC2)cc1` [3-[4-(azetidine-1-sulfonyl)phenyl]-1-(pyridin-3-ylmethyl)urea] was 1620 nM; that for `O=C(NCc1cc[nH]n1)Nc1ccc(S(=O)(=O)c2ccccc2)cc1` [1-[4-(benzenesulfonyl)phenyl]-3-(1H-pyrazol-3-ylmethyl)urea] was more than 20000 nM.
On to `O=C(NCc1cccnc1)Nc1ccc(S(=O)(=O)c2ccc(F)cc2Cl)cc1` [3-{4-[(2-chloro-4-fluorobenzene)sulfonyl]phenyl}-1-(pyridin-3-ylmethyl)urea], for which the half-inhibitory concentration (IC50) on NAMPT was found to be 8 nM.
Consider `C[C@@H]1[C@@H](NS(=O)(=O)c2ccc(NC(=O)NCc3cccnc3)cc2)C[C@H]2C[C@@H]1C2(C)C` [3-(pyridin-3-ylmethyl)-1-(4-{[(1S,2S,3S,5R)-2,6,6-trimethylbicyclo[3.1.1]heptan-3-yl]sulfamoyl}phenyl)urea], for which the IC50 with A2780 cells (setting [1]) was 96 nM.
With `CCc1ccc(NS(=O)(=O)c2ccc(NC(=O)NCc3cccnc3)cc2)cc1` [3-{4-[(4-ethylphenyl)sulfamoyl]phenyl}-1-(pyridin-3-ylmethyl)urea], on NAMPT, the half-inhibitory concentration (IC50) worked out at 7 nM.
The same measure, in the same setting: the value for `O=C(NCc1cccnc1)Nc1ccc(S(=O)(=O)N2CCC(c3ccccc3)CC2)cc1` [1-[4-(4-phenylpiperidine-1-sulfonyl)phenyl]-3-(pyridin-3-ylmethyl)urea] was 3 nM.
As to `O=C(NCc1ccc(F)cc1)Nc1ccc(S(=O)(=O)N2CCCCC2)cc1` [1-[(4-fluorophenyl)methyl]-3-[4-(piperidine-1-sulfonyl)phenyl]urea], in the assay on A2780 cells (setting [1]), the IC50 amounted to 25000 nM.
As to `CC1CCN(S(=O)(=O)c2ccc(NC(=O)NCc3cccnc3)cc2)CC1` [3-[4-(4-methylpiperidine-1-sulfonyl)phenyl]-1-(pyridin-3-ylmethyl)urea], the half-maximal inhibitory concentration (IC50) with A2780 cells (setting [1]) amounted to 254 nM.
`CC(C)CN(C)S(=O)(=O)c1ccc(NC(=O)NCc2cccnc2)cc1` [3-{4-[methyl(2-methylpropyl)sulfamoyl]phenyl}-1-(pyridin-3-ylmethyl)urea]: the IC50 at NAMPT is 7 nM.
On to `O=C(NCc1cccnc1)Nc1ccc(S(=O)(=O)Nc2cccc(Cl)c2)cc1` [3-{4-[(3-chlorophenyl)sulfamoyl]phenyl]-1-(pyridin-3-ylmethyl)urea], for which the IC50 on NAMPT stood at 1 nM.
For `O=C(NCc1cccnc1)Nc1cccc(S(=O)(=O)N2CCCCC2)c1` [1-[3-(piperidine-1-sulfonyl)phenyl]-3-(pyridin-3-ylmethyl)urea], in the assay with A2780 cells (setting [1]), the IC50 is more than 30000 nM.
As for `O=C(NCc1cccnc1)Nc1ccc(S(=O)(=O)Nc2ccccc2F)cc1` [3-{4-[(2-fluorophenyl)sulfamoyl]phenyl}-1-(pyridin-3-ylmethyl)urea], on NAMPT, the IC50 turned out to be 8 nM.
On to `O=C(NCc1ccccc1F)Nc1ccc(S(=O)(=O)N2CCCCC2)cc1` [3-[(2-fluorophenyl)methyl]-1-[4-(piperidine-1-sulfonyl)phenyl]urea], for which, in the assay on A2780 cells (setting [1]), the half-maximal inhibitory concentration (IC50) was more than 30000 nM.
Turning to `Cc1cccc(NS(=O)(=O)c2ccc(NC(=O)NCc3cccnc3)cc2)c1` [3-{4-[(3-methylphenyl)sulfamoyl]phenyl}-1-(pyridin-3-ylmethyl)urea], the IC50 at NAMPT came to 10 nM.
For `O=C(NCc1ccc(S(=O)(=O)N2CCCCC2)cc1)NCc1cccnc1` [3-{[4-(piperidine-1-sulfonyl)phenyl]methyl}-1-(pyridin-3-ylmethyl)urea], the IC50 with A2780 cells (setting [1]) was 547 nM.
In the case of `O=C(NCc1cccnc1)Nc1ccc(S(=O)(=O)N2CCCCC2)cc1` [1-[4-(piperidine-1-sulfonyl)phenyl]-3-(pyridin-3-ylmethyl)urea], the IC50 in the assay with A2780 cells (setting [1]) was 167 nM.
Turning to `NC(=O)C1CCN(S(=O)(=O)c2ccc(NC(=O)NCc3cccnc3)cc2)CC1` [1-[(4-{[(pyridin-3-ylmethyl)carbamoyl]amino}benzene)sulfonyl]piperidine-4-carboxamide], the IC50 in the assay with A2780 cells (setting [1]) came to 1480 nM.
For the compound `CN(Cc1ccc(F)cc1)S(=O)(=O)c1ccc(NC(=O)NCc2cccnc2)cc1` [3-(4-{[(4-fluorophenyl)methyl](methyl)sulfamoyl}phenyl)-1-(pyridin-3-ylmethyl)urea], the 50% inhibitory concentration (IC50) on NAMPT was determined as 3 nM.
Consider `O=C(NCc1cccnc1)Nc1ccc(S(=O)(=O)c2ccc(-n3cccn3)c(F)c2)cc1` [3-(4-{[3-fluoro-4-(1H-pyrazol-1-yl)benzene]sulfonyl}phenyl)-1-(pyridin-3-ylmethyl)urea], for which the 50% inhibitory concentration (IC50) in the assay with A2780 cells (setting [1]) was determined as 54 nM.
As to `CN(Cc1cccc(C(F)(F)F)c1)S(=O)(=O)c1ccc(NC(=O)NCc2cccnc2)cc1` [3-{4-[methyl({[3-(trifluoromethyl)phenyl]methyl})sulfamoyl]phenyl}-1-(pyridin-3-ylmethyl)urea], the half-inhibitory concentration (IC50) at NAMPT was found to be 7 nM.
As to `O=C(NCc1cccnc1)Nc1ccc(S(=O)(=O)N2CCCC2)cc1` [3-(pyridin-3-ylmethyl)-1-[4-(pyrrolidine-1-sulfonyl)phenyl]urea], the IC50 in the assay with A2780 cells (setting [1]) came to 1400 nM.
For `O=C(NCc1cccnc1)Nc1ccc(S(=O)(=O)N2CCOCC2)cc1` [1-[4-(morpholine-4-sulfonyl)phenyl]-3-(pyridin-3-ylmethyl)urea], the IC50 in the assay with A2780 cells (setting [1]) came to 1350 nM.
`C[C@@H]1CN(S(=O)(=O)c2ccc(NC(=O)NCc3cccnc3)cc2)C[C@H](C)O1` [rel-3-{4-[(2R,6S)-2,6-dimethylmorpholine-4-sulfonyl]phenyl}-1-(pyridin-3-ylmethyl)urea]: the half-inhibitory concentration (IC50) in the assay on A2780 cells (setting [1]) was 13.5 nM.
